Assays:
presenilin/γ-secretase [1] = biological target: T1, presenilin/γ-secretase (Homo sapiens, UniProt P49768); assay: Pulse-chase experiment: secretion of F-Nβ from K293 cells expressing F-NEXTΔC or F-NEXT; format: cell-based; settings: 1 μM, pretreating for 2 hours (FIG. 4D)
T1 construct: A crude purified membrane fraction of K293 cells co-expressing F-NEXTΔC and swβAPP; endogenous in cells; host or cells: K293 (human embryonic kidney 293) cells co-expressing F-NEXTΔC and swβAPP; crude membrane fraction (CMF)
Procedure: In order to determine whether an N terminal fragment (NTF: F-Nβ) was released from the cells which had expressed F-NEXTΔC or F-NEXT as a result of proteolysis by presenilin/γ-secretase, the cells (K293 cells) which had stably expressed F-NEXTΔC or F-NEXT were cultured in a 10 cm dish up to a confluent phase. The cells were cultured in DMEM solution deprived of methionine (obtained by modifying a commercially available one from Gibco) for 45 minutes to be starved with methionine. Subsequently, the medium was replaced with the same DMEM solution deprived of methionine, and simultaneously the cells were metabolically pulse-labeled with 300 μCi of [^35S]-methionine/cysteine (Pro-mix, Amersham) for 30 minutes. Then the cells were chased in 10% FCS/DMEM for 2 hours.
After termination of a chase period, the medium was collected and immediately placed on ice. Then cell debris was eliminated by centrifuging at 3,000×g. Subsequently, a protease inhibitor cocktail (1:1000, Sigma) and 0.025% sodium azide were added. The sample was immunoprecipitated with 4G8 antibody or anti-FLAG-M2-agarose (Sigma) overnight, and a precipitate was washed three times with RIPA buffer containing 0.1% SDS, 0.5% deoxycholic acid and 1% Triton X-100. Subsequently, SDS-PAGE was performed using 10 to 20% gradient gel of Tris-tricine (Invitrogen). […]

presenilin/γ-secretase [2] = biological target: T1, presenilin/γ-secretase; assay: Multiple substrate cell-free assay system combining βAPP and Notch-1 (IP/MALDI-TOF MS of Aβ, AICD, F-Nβ, NICDΔC); format: biochemical; settings: cells pretreated at 1 μM and further 1 μM added in all buffers including homogenate and reaction buffer
presenilin/γ-secretase [3] = biological target: T1, presenilin/γ-secretase; assay: as above; format: biochemical
Procedure: In the case of cell-free γ-secretase assay, MS washing buffer composed of 4 time amount or more of 0.1% n-octylglucoside, 140 mM NaCl, 10 mM Tris (pH 8.0) and 0.025% sodium azide was added to an S1 or S2 fraction which was the supernatant of ultracentrifugation after the assay. The mixture was immunoprecipitated at 4° C. for 4 hours using 6636, 6618, 4G8 or M2 agarose. After the immunoprecipitation, the precipitate was washed three times at 4° C. for 10 minutes using the MS washing buffer. The precipitate was washed once more with 10 mM Tris (pH 8.0) containing 0.025% sodium azide, and then simply washed once more with water. A peptide bound to the specific antibody in the precipitate consequently obtained was eluted with TFA/acetonitrile/water (TFA: acetonitrile: water=1:20:20) saturated with α-cyano-4-hydroxy cinnamic acid. The solubilized sample was dried on a stainless plate, and analyzed by MALDI-TOF MS. MS peaks were calibrated by angiotensin (Sigma) and insulin β chain (Sigma).
Human embryonic kidney 293 cells (K293 cells) in which F-NEXTΔC and Sweden type mutant βAPP (swβAPP) had been constitutively co-expressed were made by transfecting with the Sweden type mutant βAPP using Lipofectamine 2000 (Invitrogen), selecting by G418 and subsequently, transfecting the cells expressing βAPP with F-NEXTΔC. It was confirmed first that F-NEXTΔC and swβAPP had been expressed in the lysate of this cell, and simultaneously that F-Nβ and Aβ had been released in the culture supernatant (FIG. 5A to 5C). The composition of F-Nβ and Aβ molecular species were examined and it was confirmed that they were not inconsistent with previous reports (results are not shown).
A crude purified membrane fraction of K293 cells co-expressing F-NEXTΔC and swβAPP, pretreated with 100 nM of L685,458 or 100 nM of DAPT for 2 hours before extracting the membrane fraction was used. The S1-40 min fraction was collected from this crude purified membrane fraction. The precipitate fraction after collecting the S1-40 min fraction was resuspended in the reaction buffer, and then sonicated for a short time. Subsequently the fraction was centrifuged at 100,000×g for 15 minutes to collect the supernatant fraction as the S2-40 min fraction.
The fractions were immunoprecipitated with the antibody specific for each fragment (4G8 for Aβ, 6618 for AICD, M2 agarose for F-Nβ and […] for NICDΔC), and analyzed using the MALDI-TOF mass analyzer (FIG. 8). NICDΔC and AICD de novo produced were identified in the S1-40 min fraction. F-Nβ and Aβ were identified in the S2-40 min fraction (FIG. 8). Even when the change was added to the multiple substrate cell-free assay system combining βAPP and Notch-1, the diversity in the proteolytic sites by the presenilin/γsecretase was conserved.
The cells co-expressing F-NEXTΔC and swβAPP were cultured up to the confluent phase, and treated with the γ-secretase inhibitor at each concentration for 3 hours. As the γ-secretase inhibitor, L685,458 which was a transition-state analogue which binds to an active center of the presenilin/γ-secretase and DAPT which was not the transition-state analogue were used. The cells after the treatment were washed twice with ice-cooled PBS to collect. These cells were lysed and homogenated to extract CMF. Subsequently, this membrane fraction was suspended in alkaline washing buffer and left stand at 4° C. for 30 minutes. Then, the resuspension and the centrifugation were repeated three times using the reaction buffer to wash out the alkaline washing buffer. It appears that most γ-secretase inhibitor contained in CMF was washed out until this process. Finally, CMF was suspended once more in the reaction buffer, and the cell-free reaction was performed. The amounts of AICD and NICDΔC in the S1-40 min fraction and the amounts of Aβ and Nβ in the S2-40 min fraction were semi-quantified from relative heights of MALDI-TOF MS peaks, and evaluated by four scales of −, +, ++ and +++.

[4] = pretreated at 1 μM, thoroughly washed out

FLAG-NEXT, sequence (chain, as listed by the source): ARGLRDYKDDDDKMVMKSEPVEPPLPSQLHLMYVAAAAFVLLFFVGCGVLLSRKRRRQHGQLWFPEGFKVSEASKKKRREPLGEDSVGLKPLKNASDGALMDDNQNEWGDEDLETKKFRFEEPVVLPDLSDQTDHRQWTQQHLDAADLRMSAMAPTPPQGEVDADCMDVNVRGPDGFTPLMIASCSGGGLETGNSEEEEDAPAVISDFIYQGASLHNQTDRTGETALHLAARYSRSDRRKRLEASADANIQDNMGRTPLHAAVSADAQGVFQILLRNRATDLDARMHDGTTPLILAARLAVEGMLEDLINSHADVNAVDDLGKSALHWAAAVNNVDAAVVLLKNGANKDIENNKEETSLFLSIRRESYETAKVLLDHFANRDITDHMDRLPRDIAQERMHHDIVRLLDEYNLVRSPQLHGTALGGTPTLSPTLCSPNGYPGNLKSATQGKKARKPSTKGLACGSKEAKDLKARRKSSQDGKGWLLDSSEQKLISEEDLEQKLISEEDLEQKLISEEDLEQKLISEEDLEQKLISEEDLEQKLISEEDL

Which results are given for “wild type PS1 (presenilin), stably expressed in K293 cells”?
degradation of the F-NEXT derivative during 2 hours' chase (F-NEXT V1744G): F-NEXT V1744G and F-NEXT V1744L in the background of wild presenilin were degraded and their amounts were decreased during 2 hours' chase as with F-NEXT; degradation of the F-NEXT derivative during 2 hours' chase (F-NEXT V1744L): F-NEXT V1744G and F-NEXT V1744L in the background of wild presenilin were degraded and their amounts were decreased during 2 hours' chase as with F-NEXT

For `CC(C)C[C@H](NC(=O)[C@H](Cc1ccccc1)C[C@@H](O)[C@H](Cc1ccccc1)NC(=O)OC(C)(C)C)C(=O)N[C@@H](Cc1ccccc1)C(N)=O` [L685,458], which “secretion of F-Nβ” value (presenilin/γ-secretase [1]) is on record?
The value was “almost completely inhibited”.

What about the “production of F-Nβ, Aβ, NICDΔC and AICD (all of four fragments)” value (presenilin/γ-secretase [2]) of the same compound?
Its value is “not observed at all”.

And the “action on γ49 and corresponding S3 cleavage” value (presenilin/γ-secretase [3])?
The value was “less sensitively”.

What about the “action upon γ40 and corresponding S4 cleavage” value (presenilin/γ-secretase [3]) of the same compound?
Its value is “acted sensitively”.

And the “Aβ/Nβ, γ cleaved NTF (S4/γ40 cleavage)” value (presenilin/γ-secretase [3]; [4])?
Its value is “not observed”.

What about the “de novo production of AUCD/NICD which was γ cleaved CTF (S3/γ49 cleavage)” value (presenilin/γ-secretase [3]; [4]) of the same compound?
Its value is “recognized”.

What about the “peak heights of four fragments” value (presenilin/γ-secretase [3]; pretreated with 10 nM) of the same compound?
The value was “maximum on average”.

What about the “de novo production of F-Nβ/Aβ” value (presenilin/γ-secretase [3]; pretreatment concentration decreased to 100 nM and 10 nM) of the same compound?
The value was “recovered”.

With “PS1 D385N, dominant negative mutant of presenilin, stably expressed in K293 cells” as the compound, how does the “NICD production and decrease of F-NEXT after 2 hours' chase” value (FLAG-NEXT) read?
Its value is “not only the NICD production but also the decrease of F-NEXT and its derivatives were not observed after 2 hours' chase”.

What about the “NICD production and decrease of the F-NEXT derivative after 2 hours' chase” value (F-NEXT V1744G) of the same compound?
Its value is “not only the NICD production but also the decrease of F-NEXT and its derivatives were not observed after 2 hours' chase”.

And the “NICD production and decrease of the F-NEXT derivative after 2 hours' chase” value (F-NEXT V1744L)?
The value was “not only the NICD production but also the decrease of F-NEXT and its derivatives were not observed after 2 hours' chase”.

What does the source list for `C[C@H](NC(=O)Cc1cc(F)cc(F)c1)C(=O)N[C@H](C(=O)OC(C)(C)C)c1ccccc1` [DAPT]?
action on γ49 and corresponding S3 cleavage (presenilin/γ-secretase [3]): less sensitively; action upon γ40 and corresponding S4 cleavage (presenilin/γ-secretase [3]): acted sensitively; effects on the four fragments compared with L685,458 (presenilin/γ-secretase [3]; same pretreatment experiment (FIGS. 9A and 9B)): extremely similar
